In patent US9227971B2, “Pyrazolo[1,5-a]pyrimidine compounds as mTOR inhibitors” (Merck Sharp & Dohme Corp., priority 2010, dated 2016):
Like-named read-outs stand apart in the source and are kept apart here.

How the values were obtained:
[1] = test system: phosphorylated AKT Ser473 (pAKT S473), mTORC2 activity, PC3 cells; experiment: mTOR target engagement assay, immunofluorescent cell-based, pAKT S473 readout (mTORC2 activity)
How it was run: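 After blocking, cells were stained overnight at 4 °C with anti-pAKT S473 antibody, then a fluorescent secondary; inhibition was read as reduced fluorescence intensity.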

[2] = test system: phosphorylated 4E-BP1 Thr37/46 (p4E-BP1 Thr37/46), mTORC1 activity, PC3 cells; experiment: mTOR target engagement assay, immunofluorescent cell-based, p4E-BP1 Thr37/46 readout (mTORC1 activity); settings: read-out: p4E-BP1 Thr37/46 IC50
How it was run: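 Read-out is fluorescence intensity of immunostained p4E-BP1 Thr37/46 in fixed PC3 cells, fitted to a logistic curve for IC50 with DMSO-only wells as top. Cells had been exposed to serial compound dilutions for ninety minutes at 37° C in 5% FBS medium with 0.25% DMSO.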

[3] = Homo sapiens, PC-3, PC3 cells, compound treatment ninety minutes at 37° C.
[4] = Homo sapiens, PC-3, Table 7-2, PC3 cells

| Compound | IC50 [1, 3] | IC50 [2, 3] | other results |
| --- | --- | --- | --- |
| CC(=O)c1c([C@@H]2C[C@H]3CC[C@@H](C2)N3C(=O)CO)nc2c(-c3ccc(C(C)(C)O)nc3)cnn2c1N [Compound 7.8, 1-((1R,3s,5S)-3-(6-acetyl-7-amino-3-(6-(2-hydroxypropan-2-yl)pyridin-3-yl)pyrazolo[1,5-a]pyrimidin-5-yl)-8-azabicyclo[3.2.1]octan-8-yl)-2-hydroxyethanone] | 0.1 to 1 µM | 0.1 to 1 µM |  |
| CC(=O)c1c([C@@H]2C[C@H]3CC[C@@H](C2)N3C(=O)c2nnc(C)[nH]2)nc2c(-c3ccc(C(C)(C)O)nc3)cnn2c1N [Compound 7.9, 1-(7-amino-3-(6-(2-hydroxypropan-2-yl)pyridin-3-yl)-5-((1R,3s,5S)-8-(5-methyl-4H-1,2,4-triazole-3-carbonyl)-8-azabicyclo[3.2.1]octan-3-yl)pyrazolo[1,5-a]pyrimidin-6-yl)ethanone] | 0.1 to 1 µM | 0.1 to 1 µM |  |
| CC(=O)c1c([C@@H]2C[C@H]3CC[C@@H](C2)N3C(=O)c2cnn[nH]2)nc2c(-c3ccc(C(C)(C)O)nc3)cnn2c1N [Compound 7.10, 1-(5-((1R,3s,5S)-8-(1H-1,2,3-triazole-5-carbonyl)-8-azabicyclo[3.2.1]octan-3-yl)-7-amino-3-(6-(2-hydroxypropan-2-yl)pyridin-3-yl)pyrazolo[1,5-a]pyrimidin-6-yl)ethanone] | 0.1 to 1 µM | 0.1 to 1 µM |  |
| CC(=O)c1c([C@@H]2C[C@H]3CC[C@@H](C2)N3C(=O)c2cc[nH]n2)nc2c(-c3ccc(C(C)(C)O)nc3)cnn2c1N [Compound 7.11, 1-(5-((1R,3s,5S)-8-(1H-pyrazole-3-carbonyl)-8-azabicyclo[3.2.1]octan-3-yl)-7-amino-3-(6-(2-hydroxypropan-2-yl)pyridin-3-yl)pyrazolo[1,5-a]pyrimidin-6-yl)ethanone] | 0.001 to 0.1 µM | 0.1 to 1 µM |  |
| CC(=O)c1c([C@@H]2C[C@H]3CC[C@@H](C2)N3C(=O)c2cn[nH]c2)nc2c(-c3ccc(C(C)(C)O)nc3)cnn2c1N [Compound 7.12, 1-(5-((1R,3s,5S)-8-(1H-pyrazole-4-carbonyl)-8-azabicyclo[3.2.1]octan-3-yl)-7-amino-3-(6-(2-hydroxypropan-2-yl)pyridin-3-yl)pyrazolo[1,5-a]pyrimidin-6-yl)ethanone] | 0.1 to 1 µM | 0.1 to 1 µM |  |
| CC(=O)c1c([C@@H]2C[C@H]3CC[C@@H](C2)N3C(=O)c2nnc(N)[nH]2)nc2c(-c3ccc(C(C)(C)O)nc3)cnn2c1N [Compound 7.13, 1-(7-amino-5-((1R,3s,5S)-8-(5-amino-4H-1,2,4-triazole-3-carbonyl)-8-azabicyclo[3.2.1]octan-3-yl)-3-(6-(2-hydroxypropan-2-yl)pyridin-3-yl)pyrazolo[1,5-a]pyrimidin-6-yl)ethanone] | 0.1 to 1 µM | 0.1 to 1 µM |  |
| CC(=O)c1c([C@@H]2C[C@H]3CC[C@@H](C2)N3C(=O)c2nnc[nH]2)nc2c(-c3ccc([C@@H](C)O)nc3)cnn2c1N [Compound 7.14, 1-(5-((1R,3s,5S)-8-(4H-1,2,4-triazole-3-carbonyl)-8-azabicyclo[3.2.1]octan-3-yl)-7-amino-3-(6-((R)-1-hydroxyethyl)pyridin-3-yl)pyrazolo[1,5-a]pyrimidin-6-yl)ethanone] | 0.1 to 1 µM | 0.1 to 1 µM |  |
| CC(=O)c1c([C@@H]2C[C@H]3CC[C@@H](C2)N3C(=O)c2cn[nH]c2N)nc2c(-c3ccc(C(C)(C)O)nc3)cnn2c1N [Compound 7.15, 1-(7-amino-5-((1R,3s,5S)-8-(5-amino-1H-pyrazole-4-carbonyl)-8-azabicyclo[3.2.1]octan-3-yl)-3-(6-(2-hydroxypropan-2-yl)pyridin-3-yl)pyrazolo[1,5-a]pyrimidin-6-yl)ethanone] | 0.1 to 1 µM | 0.1 to 1 µM |  |
| CC(=O)c1c([C@@H]2C[C@H]3CC[C@@H](C2)N3C(=O)c2cc[nH]c2)nc2c(-c3ccc(C(C)(C)O)nc3)cnn2c1N [Compound 7.16, 1-(5-((1R,3s,5S)-8-(1H-pyrrole-3-carbonyl)-8-azabicyclo[3.2.1]octan-3-yl)-7-amino-3-(6-(2-hydroxypropan-2-yl)pyridin-3-yl)pyrazolo[1,5-a]pyrimidin-6-yl)ethanone] | 0.001 to 0.1 µM | 0.1 to 1 µM |  |
| CC(=O)c1c([C@@H]2C[C@H]3CC[C@@H](C2)N3C(=O)c2nnc(C)[nH]2)nc2c(-c3ccc(C4(O)CCC4)nc3)cnn2c1N [Compound 7.17, 1-(7-amino-3-(6-(1-hydroxycyclobutyl)pyridin-3-yl)-5-((1R,3s,5S)-8-(3-methyl-1H-1,2,4-triazole-5-carbonyl)-8-azabicyclo[3.2.1]octan-3-yl)pyrazolo[1,5-a]pyrimidin-6-yl)ethanone] | 0.1 to 1 µM | 0.1 to 1 µM |  |
| CC(=O)c1c([C@@H]2C[C@H]3CC[C@@H](C2)N3C(=O)CO)nc2c(-c3ccc(C4(O)CCC4)nc3)cnn2c1N [Compound 7.18, 1-((1R,3s,5S)-3-(6-acetyl-7-amino-3-(6-(1-hydroxycyclobutyl)pyridin-3-yl)pyrazolo[1,5-a]pyrimidin-5-yl)-8-azabicyclo[3.2.1]octan-8-yl)-2-hydroxyethanone] | 0.1 to 1 µM | 0.1 to 1 µM |  |
| CC(=O)c1c([C@@H]2C[C@H]3CC[C@@H](C2)N3C(=O)c2nc[nH]n2)nc2c(-c3ccc(C(C)O)cc3)cnn2c1N (stereo partly drawn) [Compound 7.20, 1-(5-((1R,3s,5S)-8-(1H-1,2,4-triazole-3-carbonyl)-8-azabicyclo[3.2.1]octan-3-yl)-7-amino-3-(4-(1-hydroxyethyl)phenyl)pyrazolo[1,5-a]pyrimidin-6-yl)ethanone] | 0.001 to 0.1 µM | 0.001 to 0.1 µM |  |
| CC(=O)c1c([C@@H]2C[C@H]3CC[C@@H](C2)N3C(=O)c2nnc[nH]2)nc2c(-c3ccc([C@@H](C)O)cc3)cnn2c1N [Compound 7.21, 1-(5-((1R,3s,5S)-8-(4H-1,2,4-triazole-3-carbonyl)-8-azabicyclo[3.2.1]octan-3-yl)-7-amino-3-(4-((R)-1-hydroxyethyl)phenyl)pyrazolo[1,5-a]pyrimidin-6-yl)ethanone] | 0.001 to 0.1 µM | 0.001 to 0.1 µM |  |
| CC(=O)c1c([C@@H]2C[C@H]3CC[C@@H](C2)N3C(=O)c2nnc[nH]2)nc2c(-c3ccc([C@H](C)O)cc3)cnn2c1N [Compound 7.22, 1-(5-((1R,3s,5S)-8-(4H-1,2,4-triazole-3-carbonyl)-8-azabicyclo[3.2.1]octan-3-yl)-7-amino-3-(4-((S)-1-hydroxyethyl)phenyl)pyrazolo[1,5-a]pyrimidin-6-yl)ethanone] | 0.001 to 0.1 µM | 0.001 to 0.1 µM |  |
| CC(=O)c1c([C@@H]2C[C@H]3CC[C@@H](C2)N3C(=O)CO)nc2c(-c3cnc(C(C)(C)O)c(C)c3)cnn2c1N [Compound 7.23, 1-((1R,3s,5S)-3-(6-acetyl-7-amino-3-(6-(2-hydroxypropan-2-yl)-5-methylpyridin-3-yl)pyrazolo[1,5-a]pyrimidin-5-yl)-8-azabicyclo[3.2.1]octan-8-yl)-2-hydroxyethanone] | 0.1 to 1 µM | 0.1 to 1 µM |  |
| CC(=O)c1c([C@@H]2C[C@H]3CC[C@@H](C2)N3C(=O)c2nnc[nH]2)nc2c(-c3cnc(C(C)(C)O)c(C)c3)cnn2c1N [Compound 7.24, 1-(5-((1R,3s,5S)-8-(4H-1,2,4-triazole-3-carbonyl)-8-azabicyclo[3.2.1]octan-3-yl)-7-amino-3-(6-(2-hydroxypropan-2-yl)-5-methylpyridin-3-yl)pyrazolo[1,5-a]pyrimidin-6-yl)ethanone] | 0.001 to 0.1 µM | 0.001 to 0.1 µM |  |
| CCCC(O)c1ccc(-c2cnn3c(N)c(S(C)(=O)=O)c([C@@H]4C[C@H]5CC[C@@H](C4)N5C(=O)c4nnc[nH]4)nc23)cn1 (stereo partly drawn) [Compound 7.25, ((1R,3s,5S)-3-(7-amino-3-(6-(1-hydroxybutyl)pyridin-3-yl)-6-(methylsulfonyl)pyrazolo[1,5-a]pyrimidin-5-yl)-8-azabicyclo[3.2.1]octan-8-yl)(4H-1,2,4-triazol-3-yl)methanone] |  |  | IC50 [1, 4]: 1 to 10 µM; IC50 [2, 4]: 1 to 10 µM |
| CCC(O)c1ccc(-c2cnn3c(N)c(S(C)(=O)=O)c([C@@H]4C[C@H]5CC[C@@H](C4)N5C(=O)c4nnc[nH]4)nc23)cn1 (stereo partly drawn) [Compound 7.26, ((1R,3s,5S)-3-(7-amino-3-(6-(1-hydroxypropyl)pyridin-3-yl)-6-(methylsulfonyl)pyrazolo[1,5-a]pyrimidin-5-yl)-8-azabicyclo[3.2.1]octan-8-yl)(4H-1,2,4-triazol-3-yl)methanone] |  |  | IC50 [1, 4]: 0.1 to 1 µM; IC50 [2, 4]: 0.1 to 1 µM |
| CC(C)(O)c1ccc(-c2cnn3c(N)c(S(C)(=O)=O)c([C@@H]4C[C@H]5CC[C@@H](C4)N5C(=O)c4nnc[nH]4)nc23)cn1 [Compound 7.27, ((1R,3s,5S)-3-(7-amino-3-(6-(2-hydroxypropan-2-yl)pyridin-3-yl)-6-(methylsulfonyl)pyrazolo[1,5-a]pyrimidin-5-yl)-8-azabicyclo[3.2.1]octan-8-yl)(1H-1,2,4-triazol-5-yl)methanone] |  |  | IC50 [1, 4]: 0.001 to 0.1 µM; IC50 [2, 4]: 0.001 to 0.1 µM |
| Cc1n[nH]c(C(=O)N2[C@@H]3CC[C@H]2C[C@H](c2nc4c(-c5ccc(C6(O)CCC6)nc5)cnn4c(N)c2S(C)(=O)=O)C3)n1 [Compound 7.29, ((1R,3s,5S)-3-(7-amino-3-(6-(1-hydroxycyclobutyl)pyridin-3-yl)-6-(methylsulfonyl)pyrazolo[1,5-a]pyrimidin-5-yl)-8-azabicyclo[3.2.1]octan-8-yl)(3-methyl-1H-1,2,4-triazol-5-yl)methanone] |  |  | IC50 ([1]; Table 7-2, PC3 cells): 0.1 to 1 µM; IC50 ([2]; Table 7-2, PC3 cells): 0.1 to 1 µM |
